# According to ChEMBL document CHEMBL5584236, “Development of novel bisphenol derivatives with a membrane-targeting mechanism as potent gram-positive antibacterial agents” (Eur J Med Chem, 2024):
# How the values were obtained:
# Escherichia coli = assay: Induction of outer membrane permeabilization in Escherichia coli ATCC25922 assessed as increase in fluorescence intensity measured upto 1 hr by NPN uptake assay; assay type: functional, organism-based
# [1] = Cytotoxicity against HEK293 cells assessed as viable cells at 3.125 ug/ml incubated for 24 hrs by CCK-8 assay relative to control; assay type: toxicity, cell-based; conditions: human, at 3.125 µg/mL, read-out: Activity
# Staphylococcus aureus [2] = assay: Antibacterial activity against Staphylococcus aureus ATCC29213 infected in C57BL6 mouse corneal infection model assessed as log reduction in CFU at 0.5 % administered topically on corneas for four times in 3 days by MHA plate counting method; assay type: functional; conditions: route top, time 3 day
# Staphylococcus aureus [3] = assay: Antibacterial activity against methicillin-resistant Staphylococcus aureus NCTC10442 assessed as reduction in bacterial growth incubated for 22 to 24 hrs in presence of FeCl2 by CLSI based broth microdilution method; assay type: functional; conditions: time 22-24 hrs
# Klebsiella pneumoniae [4] = assay: Synergistic […] activity against Klebsiella pneumoniae ATCC10031 assessed as fractional inhibitory concentration index incubated for 22 to 24 hrs in presence of gentamicin by CLSI based broth microdilution method; assay type: functional; conditions: time 22-24 hrs
# [5] = Cytotoxicity against HEK293 cells assessed reduction in cell viability incubated for 24 hrs by CCK-8 assay; assay type: toxicity, cell-based; conditions: human
# [6] = Cytotoxicity against mouse NCTC clone 929 cells assessed as viable cells at 3.125 ug/ml incubated for 24 hrs by CCK-8 assay relative to control; assay type: toxicity, cell-based; conditions: NCTC clone 929 (L929) cells, at 3.125 µg/mL, read-out: Activity
# Staphylococcus aureus [7] = assay: Drug resistance, ratio of MIC for Staphylococcus aureus ATCC29213 after 20 passages to MIC for Staphylococcus aureus ATCC29213 after initial exposure; assay type: functional
# Klebsiella pneumoniae [8] = assay: Synergistic […] activity against Klebsiella pneumoniae ATCC10031 assessed as fractional inhibitory concentration index incubated for 22 to 24 hrs in presence of tobramycin by CLSI based broth microdilution method; assay type: functional; conditions: time 22-24 hrs
# [9] = Cytotoxicity against mouse NCTC clone 929 cells assessed as viable cells at 25 ug/ml incubated for 24 hrs by CCK-8 assay relative to control; assay type: toxicity, cell-based; conditions: NCTC clone 929 (L929) cells, at 25 µg/mL, read-out: Activity
# Staphylococcus aureus [10] = assay: Antibacterial activity against Staphylococcus aureus ATCC29213 assessed as reduction in bacterial growth incubated for 22 to 24 hrs in presence of FeCl2 by CLSI based broth microdilution method; assay type: functional; conditions: time 22-24 hrs
# Staphylococcus aureus [11] = assay: Antibacterial activity against methicillin-resistant Staphylococcus aureus NCTC10442 assessed as reduction in bacterial growth incubated for 22 to 24 hrs in presence of MgCl2 by CLSI based broth microdilution method; assay type: functional; conditions: time 22-24 hrs
smiles,measurement,setting,value
COC(=O)[C@H](CCCNC(=N)N)NC(=O)[C@H](CCCNC(=N)N)NC(=O)COc1ccc(S(=O)(=O)c2ccc(OC/C=C(/C)CCC=C(C)C)cc2)cc1,Activity,Escherichia coli,Dose-Dependent Effect
same,"viability at 24 h, 3.125 ug/ml",[1],102%
same,log(activity),Staphylococcus aureus [2],6.9
same,MIC,Staphylococcus aureus [3],1.56 µg/mL
same,fractional inhibitory concentration index (FICI),Klebsiella pneumoniae [4],0.5
same,CC50 at 24 h,[5],> 100 µg/mL
same,"viability at 24 h, 3.125 ug/ml",[6],92.6%
same,Ratio,Staphylococcus aureus [7],4
same,fractional inhibitory concentration index (FICI),Klebsiella pneumoniae [8],0.375
same,"viability at 24 h, 25 ug/ml",[9],87.6%
same,MIC,Staphylococcus aureus [10],1.56 µg/mL
same,MIC,Staphylococcus aureus [11],1.56 µg/mL
